Assay results published in ChEMBL document CHEMBL5032519, “Divergent synthesis and biological evaluation of 2-(trifluoromethyl)pyridines as virulence-attenuating inverse agonists targeting PqsR” (Eur J Med Chem, 2021).
In brackets after ≈: the same amount, converted by molar mass. Activity calls are given as the source filed them. The calls are words filed in the database; no cut-off is given here.

What was measured:
[1] = Inverse agonist activity at PqsR in Escherichia coli […] by cell-based reporter gene assay
[2] = target: T1, Transcriptional regulator MvfR (Pseudomonas aeruginosa PA14) (UniProt A0A072ZLE6); experiment: Inverse agonist activity at PqsR in Pseudomonas aeruginosa assessed as reduction in pyocyanin production at 0.2 uM relative to control; parameters: scale not given: the % may be the effect or the level left
T1 sequence (whole entry): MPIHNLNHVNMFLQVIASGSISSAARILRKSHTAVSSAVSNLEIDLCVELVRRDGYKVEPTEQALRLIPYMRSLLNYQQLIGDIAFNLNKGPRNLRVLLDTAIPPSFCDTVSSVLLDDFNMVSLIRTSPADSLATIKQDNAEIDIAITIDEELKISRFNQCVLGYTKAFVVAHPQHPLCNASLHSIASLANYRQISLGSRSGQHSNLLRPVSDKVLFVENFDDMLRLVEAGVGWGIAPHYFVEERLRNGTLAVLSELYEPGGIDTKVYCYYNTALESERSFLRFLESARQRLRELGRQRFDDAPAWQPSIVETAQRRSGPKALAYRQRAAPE

Escherichia coli = experiment: Inverse agonist activity at PqsR in Escherichia coli […] by measuring remaining activity at 1 uM by cell-based reporter gene assay relative to control
[3] = Half life in human S9 fraction; format: ADME, subcellular
[4] = target: T2, Transcriptional regulator MvfR (Pseudomonas aeruginosa PA14, UniProt A0A072ZLE6); experiment: Inverse agonist activity at PqsR in Pseudomonas aeruginosa assessed as reduction in pyocyanin production
T2 sequence (A0A072ZLE6 whole entry): T1 sequence (whole entry)

Pseudomonas aeruginosa [5] = experiment: Antibiofilm activity against Pseudomonas aeruginosa assessed as reduction in CFU at 0.5 ug/ml; format: functional, organism-based; conditions: dose 0.5 µg/ml
[6] = Cytotoxicity against HEK293 cells; format: cell-based; conditions: human, read-out: LD50 (the source's name)
[7] = Kinetic solubility of compound; format: physicochemical; conditions: read-out: Kinetic_solubility
[8] = Cytotoxicity against human HepG2 cells; format: cell-based; conditions: read-out: LD50 (the source's name)
[9] = target: T1, Transcriptional regulator MvfR (Pseudomonas aeruginosa PA14); experiment: Inverse agonist activity at PqsR in Pseudomonas aeruginosa assessed as reduction in pyocyanin production at 10 uM relative to control; parameters: scale not given: the % may be the effect or the level left; conditions: filed as inverse agonist
Pseudomonas aeruginosa [10] = experiment: Antibiofilm activity against Pseudomonas aeruginosa assessed as reduction in CFU at 50 uM in presence of TOB; format: functional, organism-based
Pseudomonas aeruginosa [11] = experiment: Antibiofilm activity against Pseudomonas aeruginosa assessed as reduction in CFU at 50 uM; format: functional, organism-based

SMILES: COc1ccc(C#CCNc2ccnc(C(F)(F)F)c2)cc1C
- IC50 [1]: 289 nM
- Activity [2]: 5%

SMILES: COc1cccc(C#CCNc2ccnc(C(F)(F)F)c2)c1
- Activity (Escherichia coli): 58%

SMILES: FC(F)(F)c1cc(NCc2cn(-c3ccc(Oc4ccccc4)cc3)nn2)ccn1
- half-life [3]: 169 min

SMILES: FC(F)(F)c1cc(NCC#Cc2ccc(Cl)cc2)ccn1
- IC50 [1]: 281 nM
- IC50 [4]: 7970 nM

SMILES: FC(F)(F)c1cc(NCC#Cc2ccc(Cl)cn2)ccn1
- Activity (Escherichia coli): 53%

SMILES: Oc1ccc(C#CCNc2ccnc(C(F)(F)F)c2)cc1
- Activity (Escherichia coli): 82%

SMILES: FC(F)(F)c1cc(NCC#Cc2ccc(Cl)nc2)ccn1
- Activity (Escherichia coli; filed as inverse agonist): 33%

SMILES: NC[C@H]1O[C@H](O[C@H]2[C@H](O)[C@@H](O[C@H]3O[C@H](CO)[C@@H](O)[C@H](N)[C@H]3O)[C@H](N)C[C@@H]2N)[C@H](N)C[C@@H]1O
- Activity (Pseudomonas aeruginosa [5]): inactive

SMILES: CCOc1ccc(C#CCNc2ccnc(C(F)(F)F)c2)cc1
- IC50 [1]: 170 nM
- IC50 [4]: 390 nM

SMILES: FC(F)(F)c1cc(NCC#Cc2ccc(Oc3ccccc3)cc2)ccn1
- IC50 [1]: 20 nM
- half-life [3]: 53 min
- IC50 [4]: 490 nM
- CC50 [6]: 10000 nM
- solubility kinetic [7]: 13.2 µM (≈ 4.86 µg/mL)
- CC50 [8]: > 25000 nM

SMILES: FC(F)(F)c1cc(SCC#Cc2ccc(Cl)cc2)ccn1
- half-life [3]: 43.9 min
- CC50 [6]: > 100000 nM
- solubility kinetic [7]: 42.4 µM (≈ 13.9 µg/mL)
- CC50 [8]: > 100000 nM

SMILES: CC(C)Oc1ccc(C#CCNc2ccnc(C(F)(F)F)c2)cc1
- IC50 [4]: 650 nM

SMILES: COc1cccc(CCCNc2ccnc(C(F)(F)F)c2)c1
- Activity (Escherichia coli): 59%

SMILES: Fc1ccc(C#CCNc2ccnc(C(F)(F)F)c2)c(F)c1
- Activity (Escherichia coli): 70%

SMILES: COc1ccc(C#CCNc2ccnc(C(F)(F)F)c2)cc1
- Activity (Escherichia coli; filed as inverse agonist): 8%

SMILES: FC(F)(F)c1cc(NCC#Cc2ccc(Br)cc2)ccn1
- Activity (Escherichia coli): 115%

SMILES: FC(F)(F)c1cc(NC/C=C/c2ccc(Cl)cc2)ccn1
- IC50 [1]: 479 nM
- Activity [9]: 93%

SMILES: FC(F)(F)c1cc(NC/C=C/c2ccc(Oc3ccccc3)cc2)ccn1
- IC50 [1]: 464 nM
- IC50 [4]: 3830 nM

SMILES: CC(C)Oc1ccc(C#CCNc2ccnc(C(F)(F)F)c2)cc1F
- IC50 [1]: 80 nM
- half-life [3]: 25.3 min
- Activity (Pseudomonas aeruginosa [10]): Active
- IC50 [4]: 440 nM
- CC50 [6]: 61900 nM
- solubility kinetic [7]: 58.8 µM (≈ 20.7 µg/mL)
- Activity (Pseudomonas aeruginosa [11]): Active
- CC50 [8]: 69800 nM

SMILES: FC(F)(F)c1cc(NCCCc2ccc(Cl)cc2)ccn1
- IC50 [1]: 149 nM
- IC50 [4]: 1050 nM

SMILES: FC(F)(F)c1cc(NCCCc2ccccc2)ccn1
- Activity (Escherichia coli): 52%

SMILES: FC(F)(F)c1cc(NC/C=C\c2ccc(Cl)nc2)ccn1
- Activity (Escherichia coli; filed as inverse agonist): 45%

SMILES: FC(F)(F)c1cc(NC/C=C/c2ccc(Cl)nc2)ccn1
- Activity (Escherichia coli): 81%

SMILES: CCOc1ccc(C#CCNc2ccnc(C(F)(F)F)c2)cc1F
- half-life [3]: 13 min
- IC50 [4]: 250 nM
- CC50 [6]: 56900 nM
- solubility kinetic [7]: 60.4 µM (≈ 20.4 µg/mL)

SMILES: CCOc1ccc(C#CCNc2ccnc(C(F)(F)F)c2)cc1Cl
- IC50 [1]: 150 nM
- IC50 [4]: 390 nM

SMILES: COc1ccc(C#CCNc2ccnc(C(F)(F)F)c2)cc1F
- IC50 [4]: 3170 nM

SMILES: FC(F)(F)c1cc(NCC#Cc2ccc(Cl)c(Cl)c2)ccn1
- Activity (Escherichia coli; filed as inverse agonist): 35%

SMILES: CC(C)Oc1ccc(C#CCNc2ccnc(C(F)(F)F)c2)cc1Cl
- IC50 [1]: 129 nM
- IC50 [4]: 560 nM

SMILES: FC(F)(F)c1cc(NCCCc2ccc(Oc3ccccc3)cc2)ccn1
- Activity (Escherichia coli; filed as inverse agonist): -41%
- Activity [2]: 0%

SMILES: Fc1ccc(CCCNc2ccnc(C(F)(F)F)c2)cc1
- IC50 [1]: 251 nM
- half-life [3]: 32.7 min
- IC50 [4]: 3650 nM
- CC50 [6]: 25000 nM
- solubility kinetic [7]: 93.9 µM (≈ 28 µg/mL)

SMILES: Nc1cc(NCCCc2ccc(F)cc2)cc(C(F)(F)F)n1
- IC50 [1]: 140 nM
- half-life [3]: 56 min
- IC50 [4]: 6900 nM

SMILES: Fc1cccc(C#CCNc2ccnc(C(F)(F)F)c2)c1
- IC50 [1]: 222 nM

SMILES: Fc1ccc(C#CCNc2ccnc(C(F)(F)F)c2)cc1
- IC50 [1]: 141 nM
- half-life [3]: 61.2 min
- IC50 [4]: 3470 nM
- CC50 [6]: > 50000 nM
- solubility kinetic [7]: > 200 µM
- CC50 [8]: > 50000 nM

SMILES: COc1ccc(C#CCNc2ccnc(C(F)(F)F)c2)cc1Cl
- Activity (Escherichia coli; filed as inverse agonist): 29%
- Activity [2]: 4%
